Reference: patent publication US20260242372A1, “NOVEL IMIDAZOPYRIDINE AND PYRAZOLOPYRIDINE SULFONAMIDE DERIVATIVES” (Hoffmann-La Roche Inc., priority 2022, published 2026)
pIC50: −log10 of the molar value.

Biological target: human GPR17 short isoform (Homo sapiens, UniProt Q13304)
Experiment: GPR17 cAMP assay (hGPR17 cAMP, TR-FRET, antagonist mode)
Assay type: cell-based
Conditions: CHO-K1 cells stably expressing human GPR17 short isoform; EC80 of agonist MDL29,951; forskolin 15 μM; 30 min at room temperature
Description: CHO-K1 cells stably expressing vector containing untagged human GPR17 short isoform (Roche) were cultured at 37° C./5% CO2 in DMEM (Dulbecco's Modified Eagle Medium): F-12 (1:1) supplemented with 10% foetal bovine serum and 400 μg/ml Geneticin.
Changes in intracellular cyclic adenosine monophosphate (cAMP) levels were quantified using the Nano-TRF Detection Assay kit (Roche Diagnostics, Cat. No. 05214386001). This assay allows for direct cAMP quantification in a homogeneous solution. CAMP is detected based on time-resolved fluorescence energy transfer (TR-FRET) and competitive binding of ruthenylated cAMP and endogenous cAMP to an anti-cAMP monoclonal antibody labeled with AlexaFluor-700. The Ruthenium complex serves as the FRET donor and transfers energy to AlexaFluor-700. The FRET signal is inversely proportional to the CAMP concentration.
CHO-GPR17S cells were detached with Accutase and resuspended in assay buffer consisting of Hank's Balanced Salt Solution (HBSS), 10 mM HEPES (4-(2-hydroxyethyl) piperazine-1-ethanesulfonic acid solution) and 0.1% bovine serum albumin (pH 7.4). The cells were seeded in black 384-well plates (Corning) at a density of 10′000 cells/20 μl assay buffer until the addition of compounds.
Test antagonist compounds were serially diluted in dimethyl sulfoxide (DMSO) and spotted in 384-well plates. The compounds were then diluted in HBSS buffer supplemented with an EC80 concentration of MDL29,951 (3-(2-Carboxy-4,6-dichloroindol-3-yl) propionic acid) (GPR17 agonist) plus 3-Isobutyl-1-methylxanthine (IBMX) (0.5 mM final concentration) and added to the cells at room temperature. Forskolin (15 μM final concentration) was added 5 minutes after the test compounds and the cells were incubated at room temperature for 30 minutes. The assay was stopped by adding cAMP detection mix (containing detergents for cell lysis) for 90 minutes at room temperature.
Cellular cAMP was measured using a Paradigm reader (Molecular Devices). The raw data was used to calculate the FRET signal based on the assay's P-factor as per cAMP kit instructions. The data was normalized to the maximal activity of a reference antagonist and dose response curves were fitted to the percent activity of the test compounds using a sigmoidal dose response model (Genedata Screener).

Sequence of human GPR17 short isoform (Q13304 29-367): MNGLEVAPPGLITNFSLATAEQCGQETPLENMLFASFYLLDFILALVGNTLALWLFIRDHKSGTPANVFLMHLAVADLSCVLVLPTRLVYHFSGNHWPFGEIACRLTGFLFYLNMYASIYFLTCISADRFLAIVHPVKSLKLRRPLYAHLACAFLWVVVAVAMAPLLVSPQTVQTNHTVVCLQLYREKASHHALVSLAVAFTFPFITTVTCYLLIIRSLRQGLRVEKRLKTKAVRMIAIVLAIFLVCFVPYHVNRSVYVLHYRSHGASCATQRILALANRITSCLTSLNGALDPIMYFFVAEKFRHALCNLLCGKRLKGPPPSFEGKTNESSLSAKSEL

Compound | pIC50
COc1nc(OCC(F)F)c(F)cc1NS(=O)(=O)c1cnc2c(OC)c(C)ccn12 [Example 4, N-[6-(2,2-difluoroethoxy)-5-fluoro-2-methoxy-3-pyridyl]-8-methoxy-7-methyl-imidazo[1,2-a]pyridine-3-sulfonamide] | 8.10
COc1nc(OCC(F)F)c(F)cc1NS(=O)(=O)c1cnc2n1CCCC2 [Example 63, N-[6-(2,2-difluoroethoxy)-5-fluoro-2-methoxy-3-pyridyl]-5,6,7,8-tetrahydroimidazo[1,2-a]pyridine-3-sulfonamide] | 6.66
COc1nc(CC#N)c(F)cc1NS(=O)(=O)c1cnc2cc(Cl)ccn12 [Example 22, 7-chloro-N-[6-(cyanomethyl)-5-fluoro-2-methoxy-3-pyridyl]imidazo[1,2-a]pyridine-3-sulfonamide] | 7.64
COc1nc(OC(F)F)c(F)cc1NS(=O)(=O)c1cnc2c(C#N)c(C)ccn12 [Example 43, 8-cyano-N-[6-(difluoromethoxy)-5-fluoro-2-methoxy-3-pyridyl]-7-methyl-imidazo[1,2-a]pyridine-3-sulfonamide] | 7.12
COc1nc(C2CC2)c(F)cc1NS(=O)(=O)c1cnn2cc(Br)ccc12 [Example 82, 6-bromo-N-(6-cyclopropyl-5-fluoro-2-methoxy-3-pyridyl)pyrazolo[1,5-a]pyridine-3-sulfonamide] | 7.00
COc1nc(NS(=O)(=O)c2cnc3cc(Cl)ccn23)nc(OC)c1OCC(F)F [Example 90, 7-chloro-N-[5-(2,2-difluoroethoxy)-4,6-dimethoxy-pyrimidin-2-yl]imidazo[1,2-a]pyridine-3-sulfonamide] | 6.94
Cc1ccn2c(S(=O)(=O)Nc3cc(F)c(CC#N)cc3F)cnc2n1 [Example 76, N-[4-(cyanomethyl)-2,5-difluoro-phenyl]-7-methyl-imidazo[1,2-a]pyrimidine-3-sulfonamide] | 5.99
COc1nc(C2COC2)c(F)cc1NS(=O)(=O)c1cnn2cc(Br)ccc12 [Example 87, 6-bromo-N-[5-fluoro-2-methoxy-6-(oxetan-3-yl)-3-pyridyl]pyrazolo[1,5-a]pyridine-3-sulfonamide] | 6.44
COc1nc(NS(=O)(=O)c2cnc3cc(Cl)ccn23)c(F)cc1C1CC1 [Example 44, 7-chloro-N-(5-cyclopropyl-3-fluoro-6-methoxy-2-pyridyl)imidazo[1,2-a]pyridine-3-sulfonamide] | 7.12
COc1nc(C2COC2)c(F)cc1NS(=O)(=O)c1cnc2cc(Cl)ccn12 [Example 70, 7-chloro-N-[5-fluoro-2-methoxy-6-(oxetan-3-yl)-3-pyridyl]imidazo[1,2-a]pyridine-3-sulfonamide] | 6.39
COc1nc(NS(=O)(=O)c2cnc3cc(C4CC4)ccn23)c(F)cc1CC#N [Example 96, N-[5-(cyanomethyl)-3-fluoro-6-methoxy-2-pyridyl]-7-cyclopropyl-imidazo[1,2-a]pyridine-3-sulfonamide] | 7.42
N#CCc1cc(F)c(NS(=O)(=O)c2cnc3cc(Br)ccn23)cc1F [Example 34, 7-bromo-N-[4-(cyanomethyl)-2,5-difluoro-phenyl]imidazo[1,2-a]pyridine-3-sulfonamide] | 7.35
COc1nc(OCC(F)F)c(F)cc1NS(=O)(=O)c1cnc2n1CCC(C)C2C (stereo not shown) [Example 30, N-[6-(2,2-difluoroethoxy)-5-fluoro-2-methoxy-3-pyridyl]-7,8-dimethyl-5,6,7,8-tetrahydroimidazo[1,2-a]pyridine-3-sulfonamide] | 7.46
COc1nc(OCC(F)F)c(F)cc1NS(=O)(=O)c1cnc2c(F)c(Cl)ccn12 [Example 7, 7-chloro-N-[6-(2,2-difluoroethoxy)-5-fluoro-2-methoxy-3-pyridyl]-8-fluoro-imidazo[1,2-a]pyridine-3-sulfonamide] | 8.05
COc1ccn2c(S(=O)(=O)Nc3nc(OC)c(CC#N)cc3F)cnc2c1 [Example 35, N-[5-(cyanomethyl)-3-fluoro-6-methoxy-2-pyridyl]-7-methoxy-imidazo[1,2-a]pyridine-3-sulfonamide] | 7.34
COc1nc(NS(=O)(=O)c2cnc3cc(Br)ccn23)c(F)cc1CC(F)F [Example 10, 7-bromo-N-[5-(2,2-difluoroethyl)-3-fluoro-6-methoxy-2-pyridyl]imidazo[1,2-a]pyridine-3-sulfonamide] | 7.96

Compound | pIC50
COc1nc(OCC(F)F)c(F)cc1NS(=O)(=O)c1cnc2cc(Br)ccn12 [Example 1, 7-bromo-N-[6-(2,2-difluoroethoxy)-5-fluoro-2-methoxy-3-pyridyl]imidazo[1,2-a]pyridine-3-sulfonamide] | 8.30
COc1nc(OCC(F)F)c(F)cc1NS(=O)(=O)c1cnc2c(C#N)c(C3CC3)ccn12 [Example 33, 8-cyano-7-cyclopropyl-N-[6-(2,2-difluoroethoxy)-5-fluoro-2-methoxy-3-pyridyl]imidazo[1,2-a]pyridine-3-sulfonamide] | 7.38
COc1nc(OCC(F)F)c(F)cc1NS(=O)(=O)c1cnc2nc(Cl)ccn12 [Example 42, 7-chloro-N-[6-(2,2-difluoroethoxy)-5-fluoro-2-methoxy-3-pyridyl]imidazo[1,2-a]pyrimidine-3-sulfonamide] | 7.14
COc1nc(NS(=O)(=O)c2cnc3cc(Br)ccn23)c(F)cc1OC(F)F [Example 26, 7-bromo-N-[5-(difluoromethoxy)-3-fluoro-6-methoxy-2-pyridyl]imidazo[1,2-a]pyridine-3-sulfonamide] | 7.52
COc1nc(OCC(F)F)c(F)cc1NS(=O)(=O)c1cnc2c(C#N)c(OC(F)F)ccn12 [Example 65, 8-cyano-N-[6-(2,2-difluoroethoxy)-5-fluoro-2-methoxy-3-pyridyl]-7-(difluoromethoxy)imidazo[1,2-a]pyridine-3-sulfonamide] | 6.57
COc1ccn2c(S(=O)(=O)Nc3cc(F)c(OC(F)F)nc3OC)cnc2c1 [Example 29, N-[6-(difluoromethoxy)-5-fluoro-2-methoxy-3-pyridyl]-7-methoxy-imidazo[1,2-a]pyridine-3-sulfonamide] | 7.48
COc1nc(NS(=O)(=O)c2cnc3cc(Br)ccn23)ncc1OCCF [Example 91, 7-bromo-N-[5-(2-fluoroethoxy)-4-methoxy-pyrimidin-2-yl]imidazo[1,2-a]pyridine-3-sulfonamide] | 6.68
COc1nc(NS(=O)(=O)c2cnn3cc(Br)ccc23)c(F)cc1CC#N [Example 79, 6-bromo-N-[5-(cyanomethyl)-3-fluoro-6-methoxy-2-pyridyl]pyrazolo[1,5-a]pyridine-3-sulfonamide] | 7.70
CCc1ccn2c(S(=O)(=O)Nc3cc(F)c(OCC(F)F)nc3OC)cnc2c1 [Example 17, N-[6-(2,2-difluoroethoxy)-5-fluoro-2-methoxy-3-pyridyl]-7-ethyl-imidazo[1,2-a]pyridine-3-sulfonamide] | 7.74
COc1nc(OCC(F)F)c(F)cc1NS(=O)(=O)c1cnc2nc(C3COC3)ccn12 [Example 103, N-[6-(2,2-difluoroethoxy)-5-fluoro-2-methoxy-3-pyridyl]-7-(oxetan-3-yl)imidazo[1,2-a]pyrimidine-3-sulfonamide] | 6.31
COc1nc(OC(F)F)c(F)cc1NS(=O)(=O)c1cnc2cc(C3CC3)ccn12 [Example 95, 7-cyclopropyl-N-[6-(difluoromethoxy)-5-fluoro-2-methoxy-3-pyridyl]imidazo[1,2-a]pyridine-3-sulfonamide] | 7.89
COc1nc(OCC(F)F)c(F)cc1NS(=O)(=O)c1cnc2cc(OC(F)F)ccn12 [Example 5, N-[6-(2,2-difluoroethoxy)-5-fluoro-2-methoxy-3-pyridyl]-7-(difluoromethoxy)imidazo[1,2-a]pyridine-3-sulfonamide] | 8.10
COc1nc(OCC(F)F)c(F)cc1NS(=O)(=O)c1cnc2cc(C3COC3)ccn12 [Example 100, N-[6-(2,2-difluoroethoxy)-5-fluoro-2-methoxy-3-pyridyl]-7-(oxetan-3-yl)imidazo[1,2-a]pyridine-3-sulfonamide] | 7.43
COc1nc(NS(=O)(=O)c2cnc3nc(C4CC4)ccn23)c(F)cc1OC(F)F [Example 97, 7-cyclopropyl-N-[5-(difluoromethoxy)-3-fluoro-6-methoxy-2-pyridyl]imidazo[1,2-a]pyrimidine-3-sulfonamide] | 7.64
COc1nc(NS(=O)(=O)c2cnc3nc(C4CC4)ccn23)c(F)cc1OCC(F)F [Example 49, 7-cyclopropyl-N-[5-(2,2-difluoroethoxy)-3-fluoro-6-methoxy-2-pyridyl]imidazo[1,2-a]pyrimidine-3-sulfonamide] | 7.05
